Tests used:
Type in all cases: in vivo
[1] = system: blackgrass (Alopecurus myosuroides); assay: Test A greenhouse herbicide test, postemergence
Summary of the method: (§1)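 Visual injury score, 0 (no effect) to 100 (complete control), versus untreated controls roughly 10 d after postemergence spray; plants at one- to two-leaf stage, 2 to 10 cm tall, in loam soil and sand, kept in greenhouse.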

[2] = system: galium (catchweed bedstraw, Galium aparine); assay: Test A greenhouse herbicide test, postemergence
Summary of the method: as §1

[3] = system: barnyardgrass (Echinochloa crus-galli); assay: Test B flooded paddy test; settings: 250 g ai/ha, Flood; visual rating on scale of 0 to 100 where 0 is no effect and 100 is complete control; 13 to 15 d after treatment
Summary of the method: (§2)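 Plants grown to the 2-leaf stage. At treatment, pots were flooded to 3 cm above the soil, compound was applied directly to the paddy water, and that depth was held throughout. After 13 to 15 d in the greenhouse, response was rated visually against controls on a 0 (no effect) to 100 (complete control) scale.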

[4] = system: ducksalad (Heteranthera limosa); assay: Test B flooded paddy test; settings: 250 g ai/ha, Flood; visual rating on scale of 0 to 100 where 0 is no effect and 100 is complete control; 13 to 15 d after treatment
Summary of the method: as §2

[5] = system: sedge, umbrella (small-flower umbrella sedge, Cyperus difformis); assay: Test B flooded paddy test; settings: 250 g ai/ha, Flood; visual rating on scale of 0 to 100 where 0 is no effect and 100 is complete control; 13 to 15 d after treatment
Summary of the method: as §2

rice (Oryza sativa) = assay: Test B flooded paddy test; settings: 250 g ai/ha, Flood; visual rating on scale of 0 to 100 where 0 is no effect and 100 is complete control; 13 to 15 d after treatment
Summary of the method: as §2

[6] = system: wheat (Triticum aestivum); assay: Test A greenhouse herbicide test, pre- and postemergence; settings: Postemergence
Source text: (§3) Seeds of plant species selected from barnyardgrass (Echinochloa crus-galli), kochia (Kochia scoparia), ragweed (common ragweed, Ambrosia elatior), ryegrass, Italian (Italian ryegrass, Lolium multiflorum), crabgrass, large (large crabgrass, Digitaria sanguinalis), foxtail, giant (giant foxtail, Setaria faberii), momingglory (Ipomoea spp.), pigweed (Amaranthus retroflexus), velvetleaf (Abutilon theophrasti), wheat (Triticum aestivum), and corn (Zea mays) were planted into a blend of loam soil and sand and treated preemergence with a directed soil spray using test chemicals formulated in a non-phytotoxic solvent mixture which included a surfactant.
(§4) At the same time, plants selected from these crop and weed species and also blackgrass (Alopecurus myosuroides), and galium (catchweed bedstraw, Galium aparine) were planted in pots containing the same blend of loam soil and sand and treated with postemergence applications of test chemicals formulated in the same manner. Plants ranged in height from 2 to 10 cm and were in the one- to two-leaf stage for the postemergence treatment. Treated plants and untreated controls were maintained in a greenhouse for approximately 10 d, after which time all treated plants were compared to untreated controls and visually evaluated for injury. Plant response ratings, summarized in Table A, are based on a 0 to 100 scale where 0 is no effect and 100 is complete control. A dash (-) response means no test result.

[7] = system: barnyardgrass (Echinochloa crus-galli); assay: as above
Source text: as §3, §4

[8] = system: ryegrass, Italian (Italian ryegrass, Lolium multiflorum); assay: as above
Source text: as §3, §4

[9] = system: pigweed (Amaranthus retroflexus); assay: as above
Source text: as §3, §4

[10] = system: foxtail, giant (giant foxtail, Setaria faberii); assay: as above
Source text: as §3, §4

kochia (Kochia scoparia) = assay: as above
Source text: as §3, §4

corn (Zea mays) = assay: as above; settings: Postemergence
Source text: as §3, §4

[11] = system: ragweed (common ragweed, Ambrosia elatior); assay: as above
Source text: as §3, §4

[12] = 125 g ai/ha, 0 to 100 scale where 0 is no effect and 100 is complete control
[13] = 500 g ai/ha, visual rating after approx. 10 d, 0 to 100 scale (0 no effect, 100 complete control)
[14] = Postemergence, 125 g ai/ha, 0 to 100 scale where 0 is no effect and 100 is complete control
[15] = Postemergence, 500 g ai/ha, visual rating after approx. 10 d, 0 to 100 scale (0 no effect, 100 complete control)
[16] = Preemergence, 125 g ai/ha, 0 to 100 scale where 0 is no effect and 100 is complete control
[17] = Preemergence, 500 g ai/ha, 0 to 100 scale where 0 is no effect and 100 is complete control
[18] = 500 g ai/ha, 0 to 100 scale, 0 is no effect, 100 is complete control
[19] = Postemergence, 500 g ai/ha, 0 to 100 scale, 0 is no effect, 100 is complete control

Structure (SMILES) | Plant response rating, Blackgrass [1, 12] | Plant response rating, Galium [2, 12] | Plant response rating, Barnyardgrass [3] | Plant response rating, Ducksalad [4] | Plant response rating, Sedge, Umbrella [5] | Plant response rating, Rice (rice (Oryza sativa)) | Plant response rating, Wheat [6, 12] | Plant response rating, Barnyardgrass [7, 14] | Barnyardgrass plant response rating [7, 16] | Plant response rating, Barnyardgrass [7, 17] | Plant response rating, Ryegrass, Italian [8, 14] | Plant response rating, Ryegrass, Italian [8, 17] | Plant response rating, Pigweed [9, 14] | Pigweed plant response rating [9, 16] | Plant response rating, Pigweed [9, 17] | Plant response rating, Foxtail, Giant [10, 14] | Foxtail, Giant plant response rating [10, 16] | Plant response rating, Foxtail, Giant [10, 17] | Plant response rating, Kochia (kochia (Kochia scoparia); [14]) | Kochia plant response rating (kochia (Kochia scoparia); [16]) | other results
COC(=O)Oc1c(C)nn(C)c(=O)c1-c1c(C(F)(F)F)ccc2ccccc12 [Compound 149] | 30 | 90 | 0 | 0 | 0 | 0 | 20 | 20 | 0 | 70 | 70 | 90 | 90 | 100 | 100 | 40 | 30 | 90 | 80 | 40 | Plant response rating, Blackgrass [1, 13]: 70; Plant response rating, Galium [2, 13]: 100; Plant response rating, Wheat [6, 13]: 70; Plant response rating, Barnyardgrass [7, 15]: 20; Plant response rating, Ryegrass, Italian [8, 15]: 100; Plant response rating, Pigweed [9, 15]: 100; Plant response rating, Foxtail, Giant [10, 15]: 80; Plant response rating, Kochia (kochia (Kochia scoparia); [15]): 100; Plant response rating, Kochia (kochia (Kochia scoparia); [17]): 90; Plant response rating, Corn (corn (Zea mays); [12]): 20; Plant response rating, Corn (corn (Zea mays); [13]): 30; Plant response rating, Ragweed [11, 14]: 90; Plant response rating, Ragweed [11, 15]: 90; Plant response rating, Ragweed [11, 17]: 90
COc1nn(C)c(=O)c(-c2c(C(F)F)ccc3ccccc23)c1O [Compound 86] | 10 | 90 | 0 | 20 | 60 | 15 | 0 | 30 | 0 | 40 | 0 | 40 | 90 | 80 | 100 | 50 | 20 | 70 | 70 | 0 | Blackgrass plant response rating [1, 18]: 30; Galium plant response rating [2, 18]: 100; Wheat plant response rating [6, 18]: 0; Barnyardgrass plant response rating [7, 19]: 10; Ryegrass, Italian plant response rating [8, 19]: 50; Ryegrass, Italian plant response rating [8, 16]: 0; Pigweed plant response rating [9, 19]: 90; Foxtail, Giant plant response rating [10, 19]: 70; Kochia plant response rating (kochia (Kochia scoparia); [19]): 80; Plant response rating, Kochia (kochia (Kochia scoparia); [17]): 40; Plant response rating, Corn (corn (Zea mays); [12]): 0; Corn plant response rating (corn (Zea mays); [18]): 0; Plant response rating, Ragweed [11, 14]: 80; Ragweed plant response rating [11, 19]: 80; Ragweed plant response rating [11, 16]: 40; Plant response rating, Ragweed [11, 17]: 90

Source: patent publication US10597388B2, “Pyridazinone herbicides” (FMC CORPORATION, priority 2014, dated 2020)
